# Molecular target: EGFR (human) (UniProt P00533)
# Settings: hn5
# Chain of EGFR (human) (P00533 whole entry, looked up): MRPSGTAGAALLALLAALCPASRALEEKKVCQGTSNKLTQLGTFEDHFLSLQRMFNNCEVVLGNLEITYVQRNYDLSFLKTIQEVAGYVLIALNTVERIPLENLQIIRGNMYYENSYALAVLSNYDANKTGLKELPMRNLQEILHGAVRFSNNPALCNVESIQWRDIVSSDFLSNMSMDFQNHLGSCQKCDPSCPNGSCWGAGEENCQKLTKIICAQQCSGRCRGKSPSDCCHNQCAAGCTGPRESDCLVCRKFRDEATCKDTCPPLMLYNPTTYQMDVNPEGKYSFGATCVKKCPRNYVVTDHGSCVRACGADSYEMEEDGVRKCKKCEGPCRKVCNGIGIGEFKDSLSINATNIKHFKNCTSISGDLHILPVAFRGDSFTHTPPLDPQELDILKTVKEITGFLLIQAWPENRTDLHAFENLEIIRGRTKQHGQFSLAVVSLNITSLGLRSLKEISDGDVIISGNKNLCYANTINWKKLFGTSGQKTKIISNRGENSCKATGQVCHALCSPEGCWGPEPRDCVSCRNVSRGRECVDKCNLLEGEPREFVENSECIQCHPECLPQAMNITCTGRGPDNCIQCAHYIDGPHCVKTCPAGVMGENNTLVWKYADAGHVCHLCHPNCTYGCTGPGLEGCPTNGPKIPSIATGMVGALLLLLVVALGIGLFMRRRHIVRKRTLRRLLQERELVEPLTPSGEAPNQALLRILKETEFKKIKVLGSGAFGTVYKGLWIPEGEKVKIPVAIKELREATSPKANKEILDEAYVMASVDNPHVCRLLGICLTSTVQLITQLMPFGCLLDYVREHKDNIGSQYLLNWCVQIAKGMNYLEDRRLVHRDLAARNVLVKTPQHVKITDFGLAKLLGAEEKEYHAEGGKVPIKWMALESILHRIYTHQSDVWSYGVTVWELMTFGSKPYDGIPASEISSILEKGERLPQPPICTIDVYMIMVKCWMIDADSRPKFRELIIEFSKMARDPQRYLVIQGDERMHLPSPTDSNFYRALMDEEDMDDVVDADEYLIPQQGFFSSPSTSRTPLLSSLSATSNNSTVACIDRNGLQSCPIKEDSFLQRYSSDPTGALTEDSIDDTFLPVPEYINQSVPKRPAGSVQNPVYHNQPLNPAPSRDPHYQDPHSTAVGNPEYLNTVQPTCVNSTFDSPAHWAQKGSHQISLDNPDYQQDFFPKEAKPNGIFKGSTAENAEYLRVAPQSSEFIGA
row,IC50,SMILES
1,< 5 µM,CS(=O)(=O)CCNCc1nc(-c2ccc3ncnc(Nc4ccc(OCc5cccc(F)c5)cc4)c3c2)cs1
2,< 5 µM,CS(=O)(=O)CCNCc1ccc(-c2cc3c(Nc4ccc(OCc5ccc(F)cc5)cc4)ncnc3cn2)o1
3,< 5 µM,CS(=O)(=O)CCNCc1cccc(-c2cc3c(Nc4ccc(OCc5ccccc5)cc4)ncnc3cn2)c1
4,25 to 50 µM,CS(=O)(=O)CCNCc1nc(-c2ccc3ncnc(Nc4ccc(OCc5cccc(Br)c5)cc4)c3c2)cs1
5,< 5 µM,COc1cc(Nc2ncnc3ccc(-c4ccc(CNCCS(C)(=O)=O)o4)cc23)ccc1OCc1cccc(F)c1
6,5 to 25 µM,CS(=O)(=O)CCNCc1ccc(-c2cc3c(Nc4ccc(S(=O)(=O)c5ccccc5)cc4)ncnc3cc2F)o1
7,< 5 µM,CS(=O)(=O)CCNCc1nc(-c2ccc3ncnc(Nc4ccc(OCc5ccccc5)cc4)c3c2)cs1
8,< 5 µM,CS(=O)(=O)CCNCc1ccc(-c2cc3c(Nc4ccc5c(cnn5Cc5ccccc5)c4)ncnc3cc2F)o1
9,< 5 µM,COc1cc2ncnc(Nc3ccc4c(cnn4Cc4ccccc4)c3)c2cc1-c1ccc(CNCCS(C)(=O)=O)o1
10,5 to 25 µM,CS(=O)(=O)CCNCc1ccc(-c2ccc3ncnc(Nc4ccc(OCc5cccc(C(F)(F)F)c5)cc4)c3c2)o1
11,< 5 µM,CS(=O)(=O)CCNCc1nc(-c2ccc3ncnc(Nc4ccc5c(cnn5Cc5ccccc5)c4)c3c2)cs1
12,< 5 µM,CS(=O)(=O)CCNCc1ccc(-c2ccc3ncnc(Nc4ccc(OCc5cccc(F)c5)c(F)c4)c3c2)o1
13,< 5 µM,CS(=O)(=O)CCNCc1nc(-c2ccc3ncnc(Nc4ccc(OCc5cccc(C(F)(F)F)c5)cc4)c3c2)cs1
14,< 5 µM,COc1cc2ncnc(Nc3ccc(OCc4ccccc4)cc3)c2cc1-c1ccc(CNCCS(C)(=O)=O)o1
15,< 5 µM,CS(=O)(=O)CCNCc1ccc(-c2ccc3ncnc(Nc4ccc(OCc5ccccc5)c(Cl)c4)c3c2)o1
16,< 5 µM,CS(=O)(=O)CCNCc1ccc(-c2ccc3ncnc(Nc4ccc(OCc5ccccc5)c(F)c4)c3c2)o1

row,IC50,SMILES
1,< 5 µM,CS(=O)(=O)CCNCc1ccc(-c2ccc3ncnc(Nc4ccc(OCc5cccc(F)c5)cc4)c3c2)o1
2,< 5 µM,CS(=O)(=O)CCNCc1coc(-c2cc3c(Nc4ccc(OCc5cccc(F)c5)cc4)ncnc3cn2)c1
3,5 to 25 µM,CS(=O)(=O)CCNCc1ccoc1-c1ccc2ncnc(Nc3ccc(OCc4ccccc4)cc3)c2c1
4,< 5 µM,CS(=O)(=O)CCNCc1ccc(-c2cc3c(Nc4ccc(S(=O)(=O)c5ccccc5)cc4)ncnc3cn2)o1
5,< 5 µM,CS(=O)(=O)CCNCc1ccc(-c2cc3c(Nc4ccc(OCc5cccc(F)c5)cc4)ncnc3cn2)o1
6,< 5 µM,CS(=O)(=O)CCNCc1nc(-c2ccc3ncnc(Nc4ccc(OCc5ccccc5)c(F)c4)c3c2)cs1
7,5 to 25 µM,COc1cc(Nc2ncnc3ccc(-c4csc(CNCCS(C)(=O)=O)n4)cc23)ccc1OCc1cccc(F)c1
8,< 5 µM,CS(=O)(=O)CCNCc1nc(-c2ccc3ncnc(Nc4ccc5c(cnn5Cc5cccc(F)c5)c4)c3c2)cs1
9,< 5 µM,COc1cc2ncnc(Nc3ccc(S(=O)(=O)c4ccccc4)cc3)c2cc1-c1ccc(CNCCS(C)(=O)=O)o1
10,< 5 µM,CS(=O)(=O)CCNCc1nc(-c2ccc3ncnc(Nc4ccc(OCc5cccc(F)c5)c(F)c4)c3c2)cs1
11,< 5 µM,CS(=O)(=O)CCNCc1ccc(-c2ccc3ncnc(Nc4ccc(OCc5cccc(Br)c5)cc4)c3c2)o1
12,< 5 µM,CS(=O)(=O)CCNCc1nc(-c2ccc3ncnc(Nc4ccc(S(=O)(=O)c5ccccc5)cc4)c3c2)cs1
13,< 5 µM,CS(=O)(=O)CCNCc1coc(-c2ccc3ncnc(Nc4ccc(OCc5ccccc5)cc4)c3c2)c1
14,< 5 µM,CS(=O)(=O)CCNCc1ccc(-c2ccc3ncnc(Nc4ccc(S(=O)(=O)c5ccccc5)cc4)c3c2)o1
15,< 5 µM,CS(=O)(=O)CCNCc1ccc(-c2cc3c(Nc4ccc(OCc5ccccc5)cc4)ncnc3cc2F)o1
16,< 5 µM,CS(=O)(=O)CCNCc1ccc(-c2ccc3ncnc(Nc4ccc(OCc5ccccc5)c(C(F)(F)F)c4)c3c2)o1
